From article PMC7391767, “Molecular mechanisms underlying menthol binding and activation of TRPM8 ion channel” (Nature Communications, 2020)
“And” between values parts separate entries of the source, which are not always exact repeats. Identical values can stand only once. “Also recorded” adds a separate entry of the source. Like-named read-outs stand apart in the source and are kept apart here. Values belong to the molecule of their own block, whether it stands above or below them.

Experiments:
wild-type TRPM8 [1] = biological target: T1, wild-type TRPM8 (Mus musculus, UniProt Q8R4D5); test: whole-cell patch-clamp recording of ligand activation; format: cell-based
T1 construct: expressed in transfected cells; host or cells: HEK293T
T1 sequence (Q8R4D5 whole entry): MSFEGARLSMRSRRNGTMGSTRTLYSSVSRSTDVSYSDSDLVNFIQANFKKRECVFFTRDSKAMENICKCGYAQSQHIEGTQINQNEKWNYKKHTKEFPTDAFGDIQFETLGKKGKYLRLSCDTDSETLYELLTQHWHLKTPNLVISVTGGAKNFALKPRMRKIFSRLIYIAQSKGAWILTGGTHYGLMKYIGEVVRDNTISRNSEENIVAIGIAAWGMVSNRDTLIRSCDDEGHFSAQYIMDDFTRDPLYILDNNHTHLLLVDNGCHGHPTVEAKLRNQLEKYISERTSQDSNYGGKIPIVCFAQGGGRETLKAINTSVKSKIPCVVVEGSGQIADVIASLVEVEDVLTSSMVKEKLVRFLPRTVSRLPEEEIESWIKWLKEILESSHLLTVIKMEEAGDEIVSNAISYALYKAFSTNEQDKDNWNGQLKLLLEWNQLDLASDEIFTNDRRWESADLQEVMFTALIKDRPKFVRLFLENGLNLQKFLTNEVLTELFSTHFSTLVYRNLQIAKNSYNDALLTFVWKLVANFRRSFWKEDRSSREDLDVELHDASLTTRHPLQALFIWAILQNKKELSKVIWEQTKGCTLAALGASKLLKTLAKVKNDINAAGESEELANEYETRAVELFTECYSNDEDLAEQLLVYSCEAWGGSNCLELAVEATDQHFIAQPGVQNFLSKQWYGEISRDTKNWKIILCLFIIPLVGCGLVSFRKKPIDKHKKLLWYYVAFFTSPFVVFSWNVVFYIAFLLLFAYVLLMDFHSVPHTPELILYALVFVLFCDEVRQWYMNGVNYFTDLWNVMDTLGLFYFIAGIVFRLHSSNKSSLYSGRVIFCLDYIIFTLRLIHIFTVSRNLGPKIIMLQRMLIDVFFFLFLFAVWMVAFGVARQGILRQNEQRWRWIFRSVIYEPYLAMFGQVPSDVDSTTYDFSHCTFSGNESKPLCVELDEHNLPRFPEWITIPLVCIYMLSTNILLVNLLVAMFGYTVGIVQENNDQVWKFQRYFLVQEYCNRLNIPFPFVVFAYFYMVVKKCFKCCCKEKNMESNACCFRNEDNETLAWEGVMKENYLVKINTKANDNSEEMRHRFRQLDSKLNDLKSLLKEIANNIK
Description: (§1) Murine TRPM8 was used in this study. Point mutations were made by Fast Mutagenesis Kit V2 (SBS Genetech). Primers used to generate point mutations are summarized in Supplementary Table 2.
Cells were transiently transfected with cDNA constructs by Lipofectamine 3000 (Life Technologies) following the manufacturer’s protocol. Patch-clamp recordings were performed 1–2 days after transfection.
(§2) Patch-clamp recordings were performed with a HEKA EPC10 amplifier controlled by PatchMaster software (HEKA). Whole-cell recordings were performed at ±80 mV. Patch pipettes were prepared from borosilicate glass and fire-polished to resistance of ~4 MΩ. For whole-cell recording, serial resistance was compensated by 60%. For single-channel recordings, patch pipettes were fire-polished to a higher resistance of 6-to-10 MΩ and then recorded in the inside-out configuration. To maximize the chance of obtaining a patch with only one channel, single-channel recordings were performed about 8 h after transfection. A solution with 130 mM NaCl, 10 mM glucose, 0.2 mM EDTA, and 3 mM HEPES (pH 7.2) was used in both bath and pipette for either whole-cell or single-channel recordings. Membrane potential was clamped at +80 mV for single-channel recordings. Current was sampled at 10 kHz and filtered at 2.9 kHz. All recordings were performed at room temperature (22 °C) with the maximum variation of 1 °C.
(§3) Ligands such as menthol and its analogs were perfused to membrane patch by a gravity-driven system (RSC-200, Bio-Logic). Bath and ligand solution were delivered through separate tubes to minimize the mixing of solutions. Patch pipette was placed in front of the perfusion tube outlet.
(§4) Data from whole-cell recordings were analyzed in Igor Pro version 6.1 (WaveMatrix). EC50 values were derived from fitting a Hill equation to the concentration–response relationship. […] To distinguish these possibilities, dissociation constant (Kd) for ligand binding was estimated assuming the following gating scheme:1 C0↔KdC1↔LO, where L is the equilibrium constant for the final closed-to-open transition.

wild-type TRPM8 [2] = biological target: T1, wild-type TRPM8; test: open probability from noise analysis of macroscopic current and single-channel recordings; format: cell-based; conditions: wild-type TRPM8; near saturating concentration (menthol 500 µM)
Description: as §2
From single-channel recordings, the open probability (Po) was calculated after events detection with a hidden Markov approach in the software QuB[49] (http://www.qub.buffalo.edu/). A dead time of 0.32 ms was imposed. As a complementary approach, Po was also estimated from noise analysis[52] of whole-cell recordings. Briefly, the mean current amplitude (I), the squared deviations in current amplitude from the mean value (σ^2), and the single-channel current (i) were measured experimentally from a membrane patch of ion channels. Then the number of ion channels clamped in that patch (N) was determined as3 N=I^2/i⋅I−σ^2.
The maximum current when each of ion channel is at the open state with a Po of 1 is equal to i × N. Then the open probability was calculated as the ratio between the measured macroscopic current and the maximum current calculated by noise analysis. To estimate channel conductance, current amplitude was estimated from all-point histogram of single-channel recordings.

TRPM8 Y745F = biological target: T2, TRPM8 Y745F (Mus musculus, UniProt Q8R4D5, Y745F); test: whole-cell patch-clamp and thermodynamic mutant cycle analysis; format: cell-based
T2 construct: expressed in transfected cells; host or cells: HEK293T
T2 sequence (Q8R4D5 whole entry Y745F): as the sequence (Q8R4D5 whole entry) above, with Y745F counted along it
Description: Murine TRPM8 was used in this study. Point mutations were made by Fast Mutagenesis Kit V2 (SBS Genetech). Primers used to generate point mutations are summarized in Supplementary Table 2. All mutations were confirmed by sequencing.
(§5) HEK293T cells purchased from Kunming Cell Bank, Kunming Institute of Zoology, Chinese Academy of Sciences (ATCC, CRL-3216) were cultured in Dulbecco’s modified Eagle’s medium supplemented with 20 mM L-glutamine and 10% fetal bovine serum. Cells were transiently transfected with cDNA constructs by Lipofectamine 3000 (Life Technologies) following the manufacturer’s protocol. Patch-clamp recordings were performed 1–2 days after transfection.
as §2, §3
Data from whole-cell recordings were analyzed in Igor Pro version 6.1 (WaveMatrix). EC50 values were derived from fitting a Hill equation to the concentration–response relationship. Changes in EC50 by point mutation may be caused by either perturbation of ligand bind or channel gating or both. To distinguish these possibilities, dissociation constant (Kd) for ligand binding was estimated assuming the following gating scheme:1 C0↔KdC1↔LO, where L is the equilibrium constant for the final closed-to-open transition.
(§6) To perform thermodynamic cycle analysis, Kd values of four channel-ligand combinations (WT channel, menthol: Kd _1; Mutant channel, menthol: Kd _2; WT channel, menthol analog: Kd _3; Mutant channel, menthol analog: Kd _4) were determined separately. The strength of coupling was determined by the coupling energy (kT multiplied by LnΩ, where k is the Boltzmann constant and T is temperature in Kelvin). LnΩ was calculated by Eq. (2) as[51]2 LnΩ=LnKd_1⋅Kd_4/Kd_2⋅Kd_3.

TRPM8 Y1005F = biological target: T3, TRPM8 Y1005F (Mus musculus, UniProt Q8R4D5, Y1005F); test: as above; format: cell-based
T3 construct: expressed in transfected cells; host or cells: HEK293T
T3 sequence (Q8R4D5 whole entry Y1005F): as the sequence (Q8R4D5 whole entry) above, with Y1005F counted along it
Description: as §1, §5, §2, §3, §4, §6

TRPM8 D802S = biological target: T4, TRPM8 D802S (Mus musculus, UniProt Q8R4D5, D802S); test: as above; format: cell-based
T4 construct: expressed in transfected cells; host or cells: HEK293T
T4 sequence (Q8R4D5 whole entry D802S): as the sequence (Q8R4D5 whole entry) above, with D802S counted along it
Description: as §1, §5, §2, §3, §4, §6

TRPM8 W798A = biological target: T5, TRPM8 W798A (Mus musculus, UniProt Q8R4D5, W798A); test: as above; format: cell-based
T5 construct: expressed in transfected cells; host or cells: HEK293T
T5 sequence (Q8R4D5 whole entry W798A): as the sequence (Q8R4D5 whole entry) above, with W798A counted along it
Description: as §1, §5, §2, §3, §4, §6

TRPM8 L797A = biological target: T6, TRPM8 L797A (Mus musculus, UniProt Q8R4D5, L797A); test: as above; format: cell-based
T6 construct: expressed in transfected cells; host or cells: HEK293T
T6 sequence (Q8R4D5 whole entry L797A): as the sequence (Q8R4D5 whole entry) above, with L797A counted along it
Description: as §1, §5, §2, §3, §4, §6

TRPM8 R842K = biological target: T7, TRPM8 R842K (Mus musculus, UniProt Q8R4D5, R842K); test: as above; format: cell-based
T7 construct: expressed in transfected cells; host or cells: HEK293T
T7 sequence (Q8R4D5 whole entry R842K): as the sequence (Q8R4D5 whole entry) above, with R842K counted along it
Description: as §1, §5, §2, §3, §4, §6

TRPM8 D802L = biological target: T8, TRPM8 D802L (Mus musculus, UniProt Q8R4D5, D802L); test: as above; format: cell-based
T8 construct: expressed in transfected cells; host or cells: HEK293T
T8 sequence (Q8R4D5 whole entry D802L): as the sequence (Q8R4D5 whole entry) above, with D802L counted along it
Description: as §1, §5, §2, §3, §4, §6

TRPM8 D802I = biological target: T9, TRPM8 D802I (Mus musculus, UniProt Q8R4D5, D802I); test: as above; format: cell-based
T9 construct: expressed in transfected cells; host or cells: HEK293T
T9 sequence (Q8R4D5 whole entry D802I): as the sequence (Q8R4D5 whole entry) above, with D802I counted along it
Description: as §1, §5, §2, §3, §4, §6

TRPM8 = conditions: cited from earlier work
TRPV1 = test: whole-cell patch-clamp recording in response to a voltage ramp; format: cell-based
Description: (b) Representative whole- cell patch- clamp recording of capsaicin activation of TRPV1 in response to a voltage ramp.

[3] = mutant cycle menthol vs labelled analog

L (equilibrium constant between closed and open states upon ligand binding), Ave (wild-type TRPM8 [1]; WT): 0.9574
L, single recording (wild-type TRPM8 [1]; WT): 1.13 and 1.132 and 0.6097
Ratio X1 (Kd menthol / Kd labelled analog) (wild-type TRPM8 [1]; WT): 0.62
concentration–response curve value, ave (wild-type TRPM8 [1]; WT, 100 microM): 0.02705
concentration–response curve value, single recording (wild-type TRPM8 [1]; WT, 100 microM): 0.02655 and 0.02755
concentration–response curve value, ave (wild-type TRPM8 [1]; WT, 700 microM): 0.1118
concentration–response curve value, single recording (wild-type TRPM8 [1]; WT, 700 microM): 0.1118
concentration–response curve value, ave (wild-type TRPM8 [1]; WT, 800 microM): 0.223
concentration–response curve value, ave (wild-type TRPM8 [1]; WT, 1000 microM): 0.4153
concentration–response curve value, single recording (wild-type TRPM8 [1]; WT, 1000 microM): 0.3958 and 0.4096 and 0.4406
concentration–response curve value, ave (wild-type TRPM8 [1]; WT, 5000 microM): 0.5864
concentration–response curve value, single recording (wild-type TRPM8 [1]; WT, 5000 microM): 0.584 and 0.6851 and 0.4903
concentration–response curve value, ave (wild-type TRPM8 [1]; WT, 10000 microM): 0.596
concentration–response curve value, single recording (wild-type TRPM8 [1]; WT, 10000 microM): 0.562 and 0.63
Kd (wild-type TRPM8 [1]; WT, read-out: Kd, single recording): 1400 µM and 2020 µM and 1340 µM
EC50 (wild-type TRPM8 [1]; wild-type TRPM8, Hill equation fit of concentration–response, patch-clamp): 813 ± 84.3 µM
maximum open probability (Po max) (wild-type TRPM8 [2]): 0.48 ± 0.05
Ratio X2 (Kd menthol / Kd labelled analog) (TRPM8 Y745F): 1.11
Omega(X1/X2) (TRPM8 Y745F; menthol vs labelled analog): 0.56
Coupling Energy (TRPM8 Y745F; [3]): 0.59 kT
Ratio X2 (Kd menthol / Kd labelled analog) (TRPM8 Y1005F): 0.15
Omega(X1/X2) (TRPM8 Y1005F; menthol vs labelled analog): 4.12
Coupling Energy (TRPM8 Y1005F; [3]): 1.42 kT
Ratio X2 (Kd menthol / Kd labelled analog) (TRPM8 D802S): 2.58
Omega(X1/X2) (TRPM8 D802S; menthol vs labelled analog): 0.24
Coupling Energy (TRPM8 D802S; [3]): 1.42 kT
Ratio X2 (Kd menthol / Kd labelled analog) (TRPM8 W798A): 0.21
Omega(X1/X2) (TRPM8 W798A; menthol vs labelled analog): 2.89
Coupling Energy (TRPM8 W798A; [3]): 1.06 kT
Ratio X2 (Kd menthol / Kd labelled analog) (TRPM8 L797A): 1.22
Omega(X1/X2) (TRPM8 L797A; menthol vs labelled analog): 0.51
Coupling Energy (TRPM8 L797A; [3]): 0.67 kT
L (equilibrium constant between closed and open states upon ligand binding), Ave (TRPM8 R842K): 0.246
Ratio X2 (Kd menthol / Kd labelled analog) (TRPM8 R842K): 4.90
concentration–response curve value, ave (TRPM8 R842K; 800 microM): 0.04014
concentration–response curve value, ave (TRPM8 R842K; 1000 microM): 0.05391
concentration–response curve value, ave (TRPM8 R842K; 5000 microM): 0.1385
Kd (TRPM8 R842K; calculated from concentration–response curves, read-out: Kd, Ave): 1780 µM
Omega(X1/X2) (TRPM8 R842K; menthol vs labelled analog): 0.13
Coupling Energy (TRPM8 R842K; [3]): 2.07 kT
Kd (TRPM8 R842K; read-out: Kd, single recording): 1120 µM and 2990 µM and 1510 µM and 1500 µM
Ratio X2 (Kd menthol / Kd labelled analog) (TRPM8 D802L): 3.06
Omega(X1/X2) (TRPM8 D802L; menthol vs labelled analog): 0.20
Coupling Energy (TRPM8 D802L; [3]): 1.60 kT
Ratio X2 (Kd menthol / Kd labelled analog) (TRPM8 D802I): 1.35
Omega(X1/X2) (TRPM8 D802I; menthol vs labelled analog): 0.46
Coupling Energy (TRPM8 D802I; [3]): 0.78 kT
Structure (SMILES): CC(C)[C@@H]1CC[C@@H](C)CC1=O [menthone, (−)-menthone]
concentration–response curve value, single recording (TRPM8 R842K; 800 microM): 0.05631 and 0.03329 and 0.03847 and 0.03248
concentration–response curve value, single recording (TRPM8 R842K; 1000 microM): 0.07259 and 0.05411 and 0.04679 and 0.04215

Structure (SMILES): C[C@H](c1ccc(F)cc1)N(Cc1cccc(C(=O)O)c1)C(=O)c1cnc2ccccc2c1 [PF-05105679]
effect on cold-related pain (TRPM8): effectively suppress cold-related pain
temperature sensation (side effect) (TRPM8; patients, clinical trials): side effects of altering temperature sensation; also recorded: altered temperature sensation in patients

Structure (SMILES): COc1cc(CNC(=O)CCCC/C=C/C(C)C)ccc1O [capsaicin]
effect of deep hyperpolarization on ligand-activated channel (TRPV1): not antagonized
